Measurements from the NIST ThermoML archive (doi:10.1016/j.tca.2009.05.015).
Numbers after ± are expanded uncertainties.

Conditions: 293 K; 101.33 kPa; Crystal; X-ray diffraction

- mass density: 1022 ± 2 kg/m3
Structure (SMILES): CCCCCCCCCCCCN.Cl [dodecanamine hydrochloride]
